Values of other authors as cited in Sander's compilation of Henry's law constants (doi:10.1016/j.chemosphere.2007.04.088).

Assay: Henry solubility constant Hcp at 298.15 K (mol/(m3 Pa))
Conditions: reference: Warneck (2007); cited value

Row | SMILES | Henry solubility constant Hcp
1 | ClCC(Cl)(Cl)Cl [1,1,1,2-tetrachloroethane] | 0.0042
2 | CC(Cl)(Cl)Cl [1,1,1-trichloroethane] | 0.0006
3 | ClC(Cl)C(Cl)Cl [1,1,2,2-tetrachloroethane] | 0.024
4 | ClCC(Cl)Cl [1,1,2-trichloroethane] | 0.011
5 | C=C(Cl)Cl [1,1-dichloroethene] | 0.00037
6 | CCCl [chloroethane] | 0.00083
7 | C=CCl [chloroethene] | 0.00038
8 | ClCCl [dichloromethane] | 0.0039
9 | ClC(Cl)=C(Cl)Cl [tetrachloroethene] | 0.00062
10 | ClC(Cl)(Cl)Cl [tetrachloromethane] | 0.00036
11 | ClC=C(Cl)Cl [trichloroethene] | 0.0011
